pKi: −log10 of the molar value. Read-outs that look alike come from different tables or passages of the source.
Tests used:
[1] = Open-label absolute bioavailability / pharmacokinetic study of intranasal ketamine in healthy volunteers; format: in vivo, human; conditions: for AUC(0-t): read-out: AUC (0-4 hr); for bioavailability / Absolute Bioavailability (%): relative to IV, dose-corrected ratio of least squares geometric mean AUC(inf)
Method: This was an open-label study in 25 healthy volunteers. Subjects received single doses of ketamine by intravenous (IV) injection (20 mg), intramuscular (IM) injection (20 mg), or intranasal (IN) administration (20 mg, 40 mg and 80 mg).
Blood samples for the measurement of plasma concentrations of (R)- and (S)-ketamine and (R)- and (S)-norketamine were collected pre-dose and at 0.033, 0.083, 0.167, 0.25, 0.333, 0.5, 0.75, 1, 1.25, 2, 2.5, 3, 4, 6, 8, 12, 16, and 24 hours post-dose for each study period.
All estimates for the parent and metabolite were consistent within each formulation or dose for the racemate, (R)-, and (S)-enantiomers. After IN administration, the estimates were slightly higher for the metabolite than the parent.

NMDA receptors = conditions: cited from earlier work
[2] = acidic pH near 4.5
Text: A Buffer may be used to control the pH of the nasal spray solution at, or near 4.5. […] Also, the local pH value inside the nasal cavity directly influences the rate and extent of drug absorption. […] Additionally, maintaining pH at or above 4.0 helps to reduce local nasal tract irritation. The buffer is optional.

[3] = Dose 20 mg, hydro-alcoholic composition, minimum-maximum
[4] = Dose 40 mg, hydro-alcoholic composition, minimum-maximum
[5] = human, plasma, inhaled or intranasal, 20 mg, AUC (0-1 hr), intranasal, effective amount 20 mg
[6] = human, plasma, inhaled or intranasal, 20 mg, intranasal, effective amount 20 mg
[7] = human, plasma, inhaled or intranasal, intranasal, effective amount 20 mg
[8] = human, plasma, other: intranasal, Dose 20 mg, hydro-alcoholic composition, minimum-maximum
[9] = human, plasma, other: intranasal, Dose 40 mg, hydro-alcoholic composition, minimum-maximum
[10] = human, plasma, other: intranasal, IN administration of racemic ketamine 20 mg
[11] = human, plasma, other: intranasal, IN administration of racemic ketamine 40 mg
[12] = human, plasma, other: intranasal, IN administration of racemic ketamine 80 mg
[13] = IN administration of racemic ketamine 20 mg
[14] = IN administration of racemic ketamine 40 mg
[15] = IN administration of racemic ketamine 80 mg
[16] = Dose 10 mg, hydro-alcoholic composition, minimum-maximum
[17] = human, plasma, other: intranasal, Dose 10 mg, hydro-alcoholic composition, minimum-maximum

| SMILES | AUC(0-1 hr) [1, 3] | AUC(0-4 hr) [1, 3] | Cmax [1, 8] | Tmax [1, 8] | bioavailability [1, 10] | bioavailability [1, 11] | bioavailability [1, 12] | Absolute Bioavailability (%) [1, 13] | Absolute Bioavailability (%) [1, 14] | Absolute Bioavailability (%) [1, 15] | also measured |
| --- | --- | --- | --- | --- | --- | --- | --- | --- | --- | --- | --- |
| CNC1(c2ccccc2Cl)CCCCC1=O (racemic) [(RS)-Ketamine, (2-(2-chlorophenyl)-2-(methylamino)-cyclohexanone)] | 28.7-127 hr′ng/mL | 60.0-209 hr′ng/mL | 48 to 280 ng/mL | 4.98 to 30 min | 82.1% | 69.1% | 51.8% | – | – | – | AUC(0-1 hr) [1, 4]: 71.4-225 hr′ng/mL; AUC(0-4 hr) [1, 4]: 160-433 hr′ng/mL; AUC(0-1 hr) [1, 5]: 28.7 to 127 ng·h/mL; AUC(0-t) [1, 6]: 60 to 209 ng·h/mL; AUC(0-1 hr) ([1]; human, plasma, inhaled or intranasal, 40 milligrams, AUC (0-1 hr), intranasal, effective amount 40 milligrams): 71.4 to 225 ng·h/mL; AUC(0-t) ([1]; human, plasma, inhaled or intranasal, 40 milligrams, intranasal, effective amount 40 milligrams): 160 to 433 ng·h/mL; Tmax [1, 7]: 4.98 to 30 min; Tmax ([1]; human, plasma, inhaled or intranasal, intranasal, effective amount 40 milligrams): 10 to 30 min; Cmax [1, 9]: 94.7 to 367 ng/mL; Tmax [1, 9]: 10 to 30 min |
| NC1(c2ccccc2Cl)CCCCC1=O (racemic) [(RS)-Norketamine] | – | – | – | – | – | – | – | 94.4% | 78.8% | 54.8% | – |
| CN[C@@]1(c2ccccc2Cl)CCCCC1=O [(R)-Ketamine] | 40.5-129 hr′ng/mL | 93.0-251 hr′ng/mL | 53.4 to 206 ng/mL | 10 to 30 min | 81.6% | 68.6% | 51.1% | – | – | – | AUC(0-1 hr) [1, 16]: 15.9-70.8 hr′ng/mL; AUC(0-4 hr) [1, 16]: 33.6-118 hr′ng/mL; Cmax [1, 17]: 26.5 to 155 ng/mL; Tmax [1, 17]: 4.98 to 30 min; pKi (NMDA receptors): 5.96 |
| N[C@@]1(c2ccccc2Cl)CCCCC1=O [(R)-Norketamine] | – | – | – | – | – | – | – | 90.7% | 77.8% | 54.3% | – |
| CN[C@]1(c2ccccc2Cl)CCCCC1=O [(S)-Ketamine] | 30.9-96.7 hr′ng/mL | 66.9-181 hr′ng/mL | 41.3 to 161 ng/mL | 10 to 30 min | 82.4% | 68.9% | 51.5% | – | – | – | AUC(0-1 hr) [1, 16]: 12.8-55.8 hr′ng/mL; AUC(0-4 hr) [1, 16]: 26.4-90.4 hr′ng/mL; AUC(0-1 hr) ([1]; human, plasma, inhaled or intranasal, 10 mg, AUC (0-1 hr), intranasal, effective amount 10 mg): 12.8 to 55.8 ng·h/mL; AUC(0-t) ([1]; human, plasma, inhaled or intranasal, 10 mg, intranasal, effective amount 10 mg): 26.4 to 90.4 ng·h/mL; AUC(0-1 hr) [1, 5]: 30.9 to 96.7 ng·h/mL; AUC(0-t) [1, 6]: 66.9 to 181 ng·h/mL; Tmax ([1]; human, plasma, inhaled or intranasal, intranasal, effective amount 10 mg): 5 to 19.8 min; Tmax [1, 7]: 10 to 30 min; Cmax [1, 17]: 21.4 to 125 ng/mL; Tmax [1, 17]: 5 to 20 min; pKi (NMDA receptors): 5.49 |
| N[C@]1(c2ccccc2Cl)CCCCC1=O [(S)-Norketamine] | – | – | – | – | – | – | – | 92.4% | 77.8% | 54.9% | – |
| CNC1(c2ccccc2Cl)CCCCC1=O.Cl (stereo not drawn) [Es/ketamine HCl] | – | – | – | – | – | – | – | – | – | – | stability of solution [2]: better stability |
